According to patent US12134620B2 (ARAXES PHARMA LLC, priority 2018, dated 2024):

These molecules were tested against T1, KRAS G12C 1-169, his-tagged protein, GDP-loaded (Homo sapiens, UniProt P01116, G12C) (assay: Biochemical assay: covalent modification of KRAS G12C, analysed by mass spectrometry (RapidFire/TOF or Q-Exactive)). Conditions: Modification activity, modification percentage from MS peak intensities.
T1 construct: KRAS G12C 1-169, his-tagged protein, GDP-loaded; His tag
Format: binding
How it was run: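 GDP-loaded His-tagged KRAS G12C 1-169 (2 μM or 0.5 μM in 20 mM Hepes, 150 mM NaCl, 1 mM MgCl2) reacted with compound at 32 μM or 8 μM final (2% DMSO) for a set time, then quenched with formic acid. Percent covalent modification from deconvoluted intact-protein MS peak intensities (RapidFire/TOF or LC-Q Exactive).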
Also: time not given here.

| SMILES | Binding % |
| --- | --- |
| C=CC(=O)N1CC2(CCN(c3nc(OCCN4CC(F)(F)C4)nc(-c4c(C)ccc5[nH]ncc45)c3C#N)C2)C1 [Compound I-87, 4-(2-acryloyl-2,6-diazaspiro[3.4]octan-6-yl)-2-(2-(3,3-difluoroazetidin-1-yl)ethoxy)-6-(5-methyl-1H-indazol-4-yl)pyrimidine-5-carbonitrile] | ++ (++ indicates binding activity from 50 to 85%) |
| C=CC(=O)N1CC2(CCN(c3ccnc(-c4c(C)ccc5[nH]ncc45)n3)C2)C1 [Compound I-274, 1-(6-(2-(5-methyl-1H-indazol-4-yl)pyrimidin-4-yl)-2,6-diazaspiro[3.4]octan-2-yl)prop-2-en-1-one] | + (+ indicates binding activity greater than 0% and up to 50%) |
| C/C=C/C(=O)N1CC2(CCN(c3nc(OC[C@@H]4CCCN4C)nc(-c4c(C)ccc5[nH]ncc45)c3C#N)C2)C1 [Compound I-105, 4-(2-((E)-but-2-enoyl)-2,6-diazaspiro[3.4]octan-6-yl)-6-(5-methyl-1H-indazol-4-yl)-2-(((S)-1-methylpyrrolidin-2-yl)methoxy)pyrimidine-5-carbonitrile] | + (+ indicates binding activity greater than 0% and up to 50%) |
| C=CC(=O)N1CC2(CCN(c3cncc(-c4c(C)ccc5[nH]ncc45)c3C#N)CC2)C1 [Compound I-263, 3-(2-acryloyl-2,7-diazaspiro[3.5]nonan-7-yl)-5-(5-methyl-1H-indazol-4-yl)isonicotinonitrile] | + (+ indicates binding activity greater than 0% and up to 50%) |
| C=CC(=O)N1CC2(CCN(c3nc(-c4c(C)ccc5[nH]ncc45)nc(N4CCOCC4)n3)C2)C1 [Compound I-189, 1-(6-(4-(5-methyl-1H-indazol-4-yl)-6-morpholino-1,3,5-triazin-2-yl)-2,6-diazaspiro[3.4]octan-2-yl)prop-2-en-1-one] | + (+ indicates binding activity greater than 0% and up to 50%) |
| C=CC(=O)N1CC2(CCN(c3nc(N4CCCC4=O)nc(-c4c(C)ccc5[nH]ncc45)c3C#N)C2)C1 [Compound I-23, 4-(2-acryloyl-2,6-diazaspiro[3.4]octan-6-yl)-6-(5-methyl-1H-indazol-4-yl)-2-(2-oxopyrrolidin-1-yl)pyrimidine-5-carbonitrile] | ++ (++ indicates binding activity from 50 to 85%) |
| C=CC(=O)N1CC2(CCN(c3nc(C(=O)N4CCOCC4)nc(-c4c(C)ccc5[nH]ncc45)c3C#N)C2)C1 [Compound I-201, 4-(2-acryloyl-2,6-diazaspiro[3.4]octan-6-yl)-6-(5-methyl-1H-indazol-4-yl)-2-(morpholine-4-carbonyl)pyrimidine-5-carbonitrile] | + (+ indicates binding activity greater than 0% and up to 50%) |
| C=CC(=O)N1CC2(CCN(c3nc(N4Cc5ccccc5C4)nc(-c4c(C)ccc5[nH]ncc45)c3C#N)C2)C1 [Compound I-24, 4-(2-acryloyl-2,6-diazaspiro[3.4]octan-6-yl)-2-(isoindolin-2-yl)-6-(5-methyl-1H-indazol-4-yl)pyrimidine-5-carbonitrile] | ++ (++ indicates binding activity from 50 to 85%) |
| C=CC(=O)N1CC2(CCN(c3cnc(-c4ccccc4)c(-c4c(C)ccc5[nH]ncc45)c3C#N)C2)C1 [Compound I-207, 5-(2-acryloyl-2,6-diazaspiro[3.4]octan-6-yl)-3-(5-methyl-1H-indazol-4-yl)-2-phenylisonicotinonitrile] | ++ (++ indicates binding activity from 50 to 85%) |
| C=CC(=O)N1CC2(CCN(c3cnc(OCCc4ccccc4)c(-c4c(C)ccc5cnn(C)c45)c3C#N)C2)C1 [Compound I-222, 5-(2-acryloyl-2,6-diazaspiro[3.4]octan-6-yl)-3-(1,6-dimethyl-1H-indazol-7-yl)-2-phenethoxyisonicoti-nonitrile] | ++ (++ indicates binding activity from 50 to 85%) |
| C=CC(=O)N1CC2(CCN(c3ncnc(-c4c(C)ccc5[nH]ncc45)c3F)C2)C1 [Compound I-239, 1-(6-(5-fluoro-6-(5-methyl-1H-indazol-4-yl)pyrimidin-4-yl)-2,6-diazaspiro[3.4]octan-2-yl)prop-2-en-1-one] | + (+ indicates binding activity greater than 0% and up to 50%) |
| C=CC(=O)N1CC2(CCN(c3nc(OCc4ccccn4)nc(-c4cccc5ccccc45)c3C#N)C2)C1 [Compound I-113, 4-(2-acryloyl-2,6-diazaspiro[3.4]octan-6-yl)-6-(naphthalen-1-yl)-2-(pyridin-2-ylmethoxy)pyrimidine-5-carbonitrile] | + (+ indicates binding activity greater than 0% and up to 50%) |
| C=CC(=O)N1CC2(CCN(c3nc(OCC(=O)N4CCCC4)nc(-c4c(C)ccc5[nH]ncc45)c3C#N)C2)C1 [Compound I-127, 4-(2-acryloyl-2,6-diazaspiro[3.4]octan-6-yl)-6-(5-methyl-1H-indazol-4-yl)-2-(2-oxo-2-(pyrrolidin-1-yl)ethoxy)pyrimidine-5-carbonitrile] | + (+ indicates binding activity greater than 0% and up to 50%) |
| C=CC(=O)N1CC2(CCN(c3nc(OCc4ccccn4)nc(-c4c(C)ccc5[nH]ncc45)n3)C2)C1 [Compound I-219, 1-(6-(4-(5-methyl-1H-indazol-4-yl)-6-(pyridin-2-ylmethoxy)-1,3,5-triazin-2-yl)-2,6-diazaspiro[3.4]octan-2-yl)prop-2-en-1-one] | + (+ indicates binding activity greater than 0% and up to 50%) |
| C=CC(=O)N1CC2(CCN(c3nc(OC[C@@H]4CCCN4C)cc(-c4c(C)ccc5[nH]ncc45)c3C#N)C2)C1 [Compound I-185, 2-(2-acryloyl-2,6-diazaspiro[3.4]octan-6-yl)-4-(5-methyl-1H-indazol-4-yl)-6-(((S)-1-methylpyrrolidin-2-yl)methoxy)nicotino-nitrile] | +++ (+++ indicates binding activity greater than 85%) |
| C=CC(=O)N1CC2(CCN(c3cnc(Oc4ccccc4)c(-c4c(C)ccc5cnn(C)c45)c3C#N)C2)C1 [Compound I-215, 5-(2-acryloyl-2,6-diazaspiro[3.4]octan-6-yl)-3-(1,6-dimethyl-1H-indazol-7-yl)-2-phenoxyisonicotinoni-trile] | ++ (++ indicates binding activity from 50 to 85%) |
| C=CC(=O)N1CC2(CCN(c3nc(N4CC(N(C)C)C4)nc(-c4c(C)ccc5[nH]ncc45)c3C#N)C2)C1 [Compound I-4, 4-(2-acryloyl-2,6-diazaspiro[3.4]octan-6-yl)-2-(3-(dimethylamino)azeti-din-1-yl)-6-(5-methyl-1H-indazol-4-yl)pyrimidine-5-carbonitrile] | +++ (+++ indicates binding activity greater than 85%) |
| C=CC(=O)N1CC2(CCN(c3nc(N4CCC5(CCN(C)CC5)C4)nc(-c4c(C)ccc5[nH]ncc45)c3C#N)C2)C1 [Compound I-32, 4-(2-acryloyl-2,6-diazaspiro[3.4]octan-6-yl)-6-(5-methyl-1H-indazol-4-yl)-2-(8-methyl-2,8-diazaspiro[4.5]decan-2-yl)pyrimidine-5-carbonitrile] | ++ (++ indicates binding activity from 50 to 85%) |
| C=CC(=O)N1CC2(CCN(c3nc(C(=O)N4CCN(C)CC4)nc(-c4c(C)ccc5[nH]ncc45)c3C#N)C2)C1 [Compound I-203, 4-(2-acryloyl-2,6-diazaspiro[3.4]octan-6-yl)-6-(5-methyl-1H-indazol-4-yl)-2-(4-methylpiperazine-1-carbonyl)pyrimidine-5-carbonitrile] | + (+ indicates binding activity greater than 0% and up to 50%) |
| C=CC(=O)N1CC2(CCN(c3nc(OC[C@@H]4CN(C)CCO4)nc(-c4c(C)ccc5[nH]ncc45)c3C#N)C2)C1 [Compound I-91, 4-(2-acryloyl-2,6-diazaspiro[3.4]octan-6-yl)-6-(5-methyl-1H-indazol-4-yl)-2-(((S)-4-methylmorpholin-2-yl)methoxy)pyrimidine-5-carbonitrile] | ++ (++ indicates binding activity from 50 to 85%) |
| C=CC(=O)N1CC2(CCN(c3nc(OC[C@@H]4CCCN4C)nc(N4CCCC(O)C4)c3C#N)C2)C1 (stereo partly drawn) [Compound I-13, 4-(2-acryloyl-2,6-diazaspiro[3.4]octan-6-yl)-6-(3-hydroxypiperidin-1-yl)-2-(((S)-1-methylpyrrolidin-2-yl)methoxy)pyrimidine-5-carbonitrile] | + (+ indicates binding activity greater than 0% and up to 50%) |
| C=CC(=O)N1CC2(CCN(c3nc(OCc4cccc(C(F)(F)F)n4)nc(-c4c(C)ccc5cnn(C)c45)c3C#N)C2)C1 [Compound I-156, 4-(2-acryloyl-2,6-diazaspiro[3.4]octan-6-yl)-6-(1,6-dimethyl-1H-indazol-7-yl)-2-((6-(trifluoromethyl)pyri-din-2-yl)methoxy)pyrimidine-5-carbonitrile] | ++ (++ indicates binding activity from 50 to 85%) |
| C=CC(=O)N1CC2(CCN(c3ncnc(-c4c(C)ccc5[nH]ncc45)c3OC)C2)C1 [Compound I-243, 1-(6-(5-methoxy-6-(5-methyl-1H-indazol-4-yl)pyrimidin-4-yl)-2,6-diazaspiro[3.4]octan-2-yl)prop-2-en-1-one] | + (+ indicates binding activity greater than 0% and up to 50%) |
| C=CC(=O)N1CC2(CCN(c3nc(-c4c(C)ccc5[nH]ncc45)cc(N4CC(N(C)C)C4)n3)C2)C1 [Compound I-143, 1-(6-(4-(3-(dimethylamino)azeti-din-1-yl)-6-(5-methyl-1H-indazol-4-yl)pyrimidin-2-yl)-2,6-diazaspiro[3.4]octan-2-yl)prop-2-en-1-one] | + (+ indicates binding activity greater than 0% and up to 50%) |
| C=CC(=O)N1CC2(CCN(c3cnc(Cc4ccccc4)c(-c4c(C)ccc5[nH]ncc45)c3C#N)C2)C1 [Compound I-223, 5-(2-acryloyl-2,6-diazaspiro[3.4]octan-6-yl)-2-benzyl-3-(5-methyl-1H-indazol-4-yl)isonicotinonitrile] | ++ (++ indicates binding activity from 50 to 85%) |
